As usually defined, the melting point is the temperature, or range, at which the solid turns liquid.

Regarding `Cc1cnc2c(NC(=O)c3c(Cl)cccc3Cl)cccc2c1OCC=Cc1ccccc1`, the melting point was 169 to 171 °C.
In the case of `Nc1nc2c(s1)CCN(CC=Cc1ccc(Cl)cc1)CC2`, the melting point lay within 145 to 150 °C.
The result for `Nc1ccc(Sc2ncccn2)cc1` reads 124 to 126 °C.
Next, `CC(=O)Oc1nsnc1-c1c(Cl)cccc1Cl`: 56 to 59 °C.
The result for `COc1cccc2c1oc1ccccc12` reads 49 to 50 °C; that for `CN(C)C=Nc1ccc(I)cc1C#N`, 53 to 55 °C.
In turn, `C[C@H]1Cc2c(F)c(F)cc3c(=O)c(C(=O)O)cn1c23` had a melting point of 279 to 283 °C.
The compound `Clc1ccc(-c2csc(-c3cnccc3N3CCOCC3)n2)cc1` showed a melting point of 169 °C.
`CCOCCc1c(N=[N+]=[N-])nc(NC(=O)NCC(=O)O)nc1-c1ccccc1` registered a melting point of 160 °C.
The result for `CCn1c2ccccc2c2cc(N(c3ccccc3)c3ccc(-c4ccc(N(c5ccccc5)c5ccc6c(c5)c5ccccc5n6CC)cc4)cc3)ccc21` reads 250 to 252 °C.
The result for `CC(C)c1cc(OS(C)(=O)=O)cc(C(C)C)c1NC(=O)CN1CCN(CCSc2nc3ccccc3o2)CC1` reads 115 to 117 °C.
The result for `COc1ccc(-c2cccn2-c2ccc(S(C)(=O)=O)cc2)cc1` reads 183 to 184 °C; that for `CC12CCC(C1)C(C)(C)C2(S)CCO` (configuration not stated), 55 to 60 °C; that for `COc1ccc2[nH]cc(C3CCN(C(=O)NCC4CCC(c5ccccc5)(N(C)C)CC4)CC3)c2c1` (configuration not stated), 98 to 100 °C.
As for `C=CCNc1nc(NCC=C)c2scc(-c3ccccc3)c2n1`, the melting point was 98 to 100 °C.
The result for `O=C(O)COc1nnc(C(Cl)Cl)s1` reads 114 °C.
Next, `Cc1cc(C)c2cccc(OCc3c(C)ccc(N(C)C(=O)CN)c3C)c2n1`: 145 to 148 °C; `CCc1c(OC)cc2c(c1O)C(=O)C[C@H]1CCN(C)C[C@@H]21` (relative stereo): 221 to 223 °C.
The result for `CCC(=O)n1c(=O)[nH]c(=O)n1C(=O)CC` reads 208 °C; that for `CCn1c(C)c(C2(N(c3ccccc3)c3ccccc3C(=O)OC)OC(=O)c3ccccc32)c2ccccc21` (configuration not stated), 80 to 115 °C.
For the compound `COC(=O)CCCCCCNC(=O)C(CO)NS(=O)(=O)c1ccc(Cl)cc1` (racemic), the melting point lay in the range of 78 to 81 °C.
Next, `CC1(C)Oc2ccc(C#N)cc2C(OC2=CC(=O)CC2)C1(C)O` (configuration not stated): 204 to 206 °C; `COC(=O)CN1Cc2cc(C(=O)c3cccnc3)ccc2N=C1SC`: 114 °C; `CCN1C(=O)C(C)(C)C(=O)N(C)c2cc(CCN(CCn3ccc4oc(C)cc4c3=O)Cc3cc(C)nn3C)ccc21`: 134 to 140 °C.
The result for `COc1ccc(CONCc2ccc(OC)cc2OC)cc1` reads 52 to 55 °C; that for `NS(=O)(=O)c1cc(C(=O)O)cc(NCc2ccccc2)c1Nc1ccccc1`, 248 to 249 °C; that for `O=C(O)c1cccc(NC(=O)C(CS)Cc2ccc(F)cc2)c1` (configuration not stated), 180 to 182 °C.
Next, `CCOc1nn(Cc2ccc(OCc3nc(-c4cccs4)oc3C)cc2)cc1CCC(=O)O`: 156 to 157 °C; `O=c1c(-c2ccccc2)c(Cn2cnc3ccccc32)oc2ccc(Br)cc12`: 192 to 197 °C.
The compound `CC(=O)n1c(C)c(-c2ccccc2)c(=O)n1-c1ncccn1` gave a melting point of 138 to 140 °C.
Next, `O=C(Nc1ncc(C(F)(F)F)o1)C1c2ccccc2Oc2ccc(F)cc21` (racemic): 217 °C.
Regarding `C=CCn1c2ccccc2c2ccccc21`, the melting point is 52 to 54 °C.
Regarding `CCc1cc(NCc2ccc(-c3ccccc3-c3nnn[nH]3)cc2)n2ncc(Cl)c2n1`, the melting point fell in the range of 136 to 138 °C.
The result for `CCOC(=O)N1CCCC(Nc2nc3cncnc3n2Cc2ccc(F)cc2)CC1` (configuration not stated) reads 157 °C.
The result for `Cc1cc(C)c(Cc2ccc(C(C)C)cc2)c(OCC(=O)O)c1` reads 104 to 105 °C; that for `Nc1nc2ccc(C(=C(Cl)Cl)c3ccccc3)cc2n1N1C=CC=CS1`, 214 to 217 °C; that for `N=C(Nc1cc(NC(=O)/C=C/c2ccccc2C(F)(F)F)ccc1Cl)c1ccccc1`, 188 to 189 °C.
The result for `CC1(C)SC2C(NC(=O)Nc3ccccc3)C(=O)N2C1c1nnn[nH]1` (configuration not stated) reads 110 to 120 °C; that for `Cc1nn2ccccc2c1C=O`, 77 to 79 °C; that for `CC(C)(C)OC(=O)C1CC(Cc2ccccc2)C(=O)N1C(=O)OC(C)(C)C` (configuration not stated), 125 °C.
In turn, `Cc1nnc2ccc(-c3cccc(N4CCCCC4=O)c3)nn12` displayed a melting point of 204 to 207 °C.
For the compound `CCOC(=O)Cc1cccc2c(=O)cc(C3=CCCCC3)oc12`, the melting point fell in the range of 126 to 127 °C.
On to `Nc1nc(N)nc(-c2nccc3ccccc23)n1`, for which the melting point is above 250 °C.
The result for `COc1ccc(C[C@@H](NC(=O)c2cccc3ccccc23)[C@@H](O)c2ccc(F)cc2)cc1` (racemic) reads 198 to 199 °C; that for `COc1ccc(CCN)cc1S(N)(=O)=O`, 164 to 167 °C.
Next, `CN1CCC(c2cc3ccccc3c(=O)[nH]2)CC1`: 255 to 257 °C; `Oc1ccc(-c2ccc3ccc(O)cc3c2)cc1`: 210 °C.
The result for `CC1(C)CCOC1=C(Oc1ccc(Cl)cc1)n1ccnc1` reads 85 to 88 °C; that for `O=C1c2ccccc2C(=O)N1CCSCc1nccc(NC(=S)NCC(F)(F)F)n1`, 178 to 179 °C.
`NC(=O)c1ncn(C2OC(CO)C(O)C2O)c1C(N)=O` (configuration not stated) returned a melting point of 224 to 226 °C.
Next, `CCCc1nn(C)c2c(=O)[nH]c(-c3cc(C(=O)O)ccc3OCC)nc12`: 285 to 288 °C; `CCCCC/C(=C\C=C\C(=O)NCCCCc1cccnc1)c1ccc(OC)cc1`: 81.5 to 82.5 °C.
As for `CCOCc1nc2c(N)nc3cc(-n4ccnc4)ccc3c2n1CCCOC`, the melting point lay in the range of 168 to 169 °C.
Consider `CCCCCC1OCc2cc(C#N)ccc2O1` (configuration not stated), for which the melting point was in the range of 40.5 to 41 °C.
`Cc1c(-c2ccc(Cl)cc2)nn(C)c1C(F)(F)F`: the melting point lay in the range of 87 to 88.5 °C.
The result for `CC(=O)Nc1cnc(-c2cc(Cl)cc(Cl)c2Cl)c(N)n1` reads 200 to 203 °C; that for `CC(=O)OCCOc1cc(-n2c(=O)cc(C(F)(F)F)n(C)c2=O)c(F)cc1Cl`, 88 to 90 °C; that for `Cc1ccc2c(c1)CN(C(=O)NCCc1ccc(S(=O)(=O)NC(=O)NC3CCCCC3)cc1)C2=O`, 216 to 218 °C.
The result for `Cc1ccc(C(=O)c2cc(CN(C)C)c(O)c(C(C)(C)C)c2)s1` reads 119 to 120 °C.
The result for `CSc1ccc2c(c1)Cc1ccc(C(=O)O)cc1O2` reads 266 to 267 °C.
For `Cc1cc(F)ccc1-c1nc(NC(C)(CO)CO)nc2c1ccc(=O)n2-c1c(F)cccc1F`, the melting point lay in the range of 158 to 160 °C.
The result for `CN(C)C1(c2ccccc2)CC=C(c2c[nH]c3ccccc23)CC1` (configuration not stated) reads 164 to 172 °C.
The result for `COc1cc(CNc2nc(NCCc3ccccn3)nc3ncccc23)cc(OC)c1` reads 157 to 158 °C.
Next, `Cc1cccc(C(=O)NO)c1N(C)S(=O)(=O)c1ccc(OCCCCNC(=O)c2cc3ccccc3o2)cc1`: 131 to 134 °C; `O=C(N[C@H]1C[C@H](C(=O)O)Nc2cc(Cl)cc(Cl)c21)C1CCCCC1` (relative stereo): 190 to 195 °C.
`Cc1c(C)c2c(c(C)c1N)CC(C)(CN1CCN(C(=O)C(c3ccccc3)c3ccccc3)CC1)O2` (configuration not stated) had a melting point of 113 to 115 °C.
Next, `CC(=O)NNc1ccc(Cl)c(CN2OCC(C)(C)C2=O)c1`: 178 to 180 °C.
The result for `CC(C)c1nc(CCO)n(Cc2ccncc2)c1Sc1cc(Cl)cc(Cl)c1` reads 121 to 122 °C.
The compound `Cc1c(Cl)nc(=O)n(C)c1N` showed a melting point of 254 to 256 °C.
The result for `Cn1c(C(F)(F)F)cc(=O)n(-c2cc(OCC3CO3)c(Cl)cc2F)c1=O` (configuration not stated) reads 93 to 96 °C.
The result for `Nc1cccc(-c2ccc(OC3CN(Cc4ccccn4)C3)c3ccccc23)n1` reads 97 to 120 °C.
The result for `CC(=Cc1cccc(SC(F)(F)F)c1)[N+](=O)[O-]` reads 48 °C; that for `CC(C)(CO)NC(=O)c1ccncc1C1=CCCc2ccccc21`, 157 °C; that for `COc1cc(S(C)=O)c(C)cc1OCC(C)=O` (configuration not stated), 104 to 106 °C.
`O=C(Nc1cccc2c1C(=O)c1c-2n[nH]c1-c1ccc(C(=O)N2CCC[C@@H]2CN2CCCC2)s1)NN1CCOCC1` yielded a melting point of 166 to 167 °C.
Next, `CC(O)c1cc2c(s1)C(=O)c1c(C(C)O)csc1C2=O` (configuration not stated): 218 to 219 °C; `CC1c2ccccc2-c2cc(Br)ccc2N1S(=O)(=O)c1ccc(O)cc1` (configuration not stated): 201 to 203 °C.
The result for `CC(C)C[C@H](NC(=O)CCC1CCCCC1)C(=O)N[C@@H](Cc1ccccc1)C(=O)CSCc1ccco1` reads 116 to 118 °C; that for `COC(=O)C(O)(c1ccc(Cl)c(Cl)c1)c1ccc(Cl)c(Cl)c1`, 69 °C; that for `COc1cc(-c2nc3sccn3c2-c2ccnc(NC3CCN(S(=O)(=O)C4CC4)CC3)n2)ccc1F`, 146 to 148 °C.
Next, `COc1cccc(Cc2cc3cccc(-c4cccc(C(=O)NC5CCOCC5)c4)c3o2)c1`: 146 to 147 °C; `Cc1cc(N(C)C)nc2ccc(C=O)cc12`: 96 to 99 °C; `CCOC(=O)c1ncn2c1CN(Cc1ccc(OC)cc1OC)C(=O)c1cc(OC)ccc1-2`: 204 °C.
In the case of `CNc1nc(N)nc2c1ncn2C1CC(F)C(CO)O1` (configuration not stated), the melting point turned out to be 111 °C.
Next, `N#Cc1ccc(-c2cc(C(=O)N[C@H]3CC[C@H](C(=O)O)CC3)c(=O)n(Cc3ccccc3)n2)cc1`: 215 to 218 °C.
Turning to `CS(=O)(=O)NC(=O)CCCCCCCCCCCNC(=O)NC12CC3CC(CC(C3)C1)C2`, the melting point amounted to 103 °C.
The result for `CC(C)(C)CC(=O)NC(Cc1ccc(OCc2ccccc2)cc1)C(=O)Nc1c(F)cc(F)cc1F` (configuration not stated) reads 150 to 157 °C.

The values above are taken from a melting point compilation (Tetko et al.; mined from patent text by program, amines drawn as free bases though some values may be those of a salt).
